Patent US20230295234A1, “ANTIMICROBIAL PEPTIDOMIMETICS” (SPEXIS AG, priority 2020, published 2023)
Bridge positions count the residues as written; N and C are the ends. Square brackets hold non-standard residues; d marks the D form. Peptide text beside a SMILES is read from it. * marks the point of attachment. Pro(4R-NH2) = N[C@H]1CN[C@H](C(=O)O)C1; X2 = N=C(N)N1C[C@H](O)C[C@H]1C(=O)*; Gly(N-2-aminoethyl) = NCCNCC(=O)O; Pen = CC(C)(S)[C@H](N)C(=O)O; dDab = NCC[C@@H](N)C(=O)O; Nle = CCCC[C@H](N)C(=O)O; Dab = NCC[C@H](N)C(=O)O; X3 = NCCN(CCN)CC(=O)*

How the values were obtained:
[1] = tested on: Escherichia coli MCR-1 Af 45; settings: MCR-1 Af 45
Summary of the method: (§1)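 Peptides were made up as 1 mg/mL stocks in sterile water. Colonies in 0.85% saline were set to 0.5 McFarland, then diluted in cation-adjusted Mueller-Hinton II broth to about 5×10^5 CFU/mL. Inoculum was combined with two-fold serial peptide dilutions in water containing 0.002% (final) polysorbate 80.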

[2] = tested on: Escherichia coli ATCC 25922; settings: ATCC 25922
Summary of the method: as §1

[3] = tested on: Klebsiella pneumoniae SSI3010; settings: SSI3010
Summary of the method: as §1

[4] = tested on: human red blood cells (hRBC); experiment: Hemolysis of human red blood cells; format: cell-based; settings: red cells of human, 1 h
Summary of the method: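 Percent hemolysis is OD540 of peptide-treated supernatant relative to water-lysed cells. Each peptide was tested at 200 μg/mL against 20% (v/v) washed human erythrocytes. Incubation was 1 h at 37 °C, 300 rpm.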

SMILES | Escherichia coli MCR-1 Af 45 MIC [1] [µg/mL] | Escherichia coli ATCC 25922 MIC [2] [µg/mL] | Klebsiella pneumoniae SSI3010 MIC [3] [µg/mL] | Hemolysis at 0.2 g/L [4] [%]
CC[C@H](C)[C@H](NC(=O)[C@@H]1C[C@@H](O)CN1C(=O)[C@@H](NC(=O)CNCCCCN)C(C)C)C(=O)N[C@H](C(=O)N[C@@H](Cc1ccc(O)cc1)C(=O)N[C@@H]1C(=O)N[C@@H](CC(N)=O)C(=O)N[C@@H](CCCNC(=N)N)C(=O)N[C@@H](CCN)C(=O)N[C@@H]([C@@H](C)O)C(=O)N[C@H](CCN)C(=O)N[C@@H](CCCCN)C(=O)N[C@H](C(=O)N[C@@H](CCN)C(=O)N[C@@H](CCCNC(=N)N)C(=O)N[C@@H](Cc2ccc(O)cc2)C(=O)O)CSSC1(C)C)[C@@H](C)O [Example 34, Nlys-Val-Hyp-Ile-Thr-Tyr-Pen-Asn-Arg-Dab-Thr-^DDab-Lys-Cys-Dab-Arg-Tyr] (HELM PEPTIDE1{[NCCCCNCC(=O)[*:2]].V.[Hyp].I.T.Y.[Pen].N.R.[Dab].T.[NCC[C@@H](N[*:1])C(=O)[*:2]].K.C.[Dab].R.Y}$PEPTIDE1,PEPTIDE1,7:R3-14:R3$$$V2.0) | 0.125 | 0.125 | 0.125 | 0
CC[C@H](C)[C@H](NC(=O)[C@@H]1C[C@@H](O)CN1C(=O)[C@@H](NC(=O)[C@@H]1C[C@@H](O)CN1C(=N)N)C(C)C)C(=O)N[C@H](C(=O)N[C@@H](Cc1ccc(O)cc1)C(=O)N[C@@H]1C(=O)N[C@@H](CC(N)=O)C(=O)N[C@@H](CCCNC(=N)N)C(=O)N[C@@H](CCN)C(=O)N[C@@H]([C@@H](C)O)C(=O)N[C@H](CCN)C(=O)N[C@@H](CCCCN)C(=O)N[C@H](C(=O)N[C@@H](CCN)C(=O)N[C@@H](CCCNC(=N)N)C(=O)N[C@@H](Cc2ccc(O)cc2)C(=O)O)CSSC1(C)C)[C@@H](C)O [Example 35, Gua-Hyp-Val-Hyp-Ile-Thr-Tyr-Pen-Asn-Arg-Dab-Thr-^DDab-Lys-Cys-Dab-Arg-Tyr] (HELM PEPTIDE1{[N=C(N)N1C[C@H](O)C[C@H]1C(=O)[*:2]].V.[Hyp].I.T.Y.[Pen].N.R.[Dab].T.[NCC[C@@H](N[*:1])C(=O)[*:2]].K.C.[Dab].R.Y}$PEPTIDE1,PEPTIDE1,7:R3-14:R3$$$V2.0) | 0.125 | 0.125 | 0.25 | 0
CC[C@H](C)[C@H](NC(=O)[C@@H]1C[C@@H](N)CN1C(=O)[C@@H](NC(=O)[C@@H]1C[C@@H](O)CN1C(=N)N)C(C)C)C(=O)N[C@H](C(=O)N[C@@H](Cc1ccc(O)cc1)C(=O)N[C@@H]1C(=O)N[C@@H](CC(N)=O)C(=O)N[C@@H](CCCNC(=N)N)C(=O)N[C@@H](CCN)C(=O)N[C@@H]([C@@H](C)O)C(=O)N[C@H](CCN)C(=O)N[C@@H](CCCCN)C(=O)N[C@H](C(=O)N[C@@H](CCN)C(=O)N[C@@H](CCCNC(=N)N)C(=O)N[C@@H](Cc2ccc(O)cc2)C(=O)O)CSSC1(C)C)[C@@H](C)O [Example 36, Gua-Hyp-Val-Pro((4R)NH2)-Ile-Thr-Tyr-Pen-Asn-Arg-^Dab-Thr-^DDab-Lys-Cys-Dab-Arg-Tyr] (X2-V[Pro(4R-NH2)]ITY[Pen]NR[Dab]T[dDab]KC[Dab]RY-OH; disulfide 6-13) | 0.0625 | 0.125 | 0.125 | 0
CC[C@H](C)[C@H](NC(=O)CN(CCN)C(=O)[C@@H](NC(=O)[C@@H]1C[C@@H](O)CN1C(=N)N)C(C)C)C(=O)N[C@H](C(=O)N[C@@H](Cc1ccc(O)cc1)C(=O)N[C@@H]1C(=O)N[C@@H](CC(N)=O)C(=O)N[C@@H](CCCNC(=N)N)C(=O)N[C@@H](CCN)C(=O)N[C@@H]([C@@H](C)O)C(=O)N[C@H](CCN)C(=O)N[C@@H](CCCCN)C(=O)N[C@H](C(=O)N[C@@H](CCN)C(=O)N[C@@H](CCCNC(=N)N)C(=O)N[C@@H](Cc2ccc(O)cc2)C(=O)O)CSSC1(C)C)[C@@H](C)O [Example 37, Gua-Hyp-Val-Ndab-Ile-Thr-Tyr-Pen-Asn-Arg-Dab-Thr-^DDab-Lys-Cys-Dab-Arg-Tyr] (X2-V[Gly(N-2-aminoethyl)]ITY[Pen]NR[Dab]T[dDab]KC[Dab]RY-OH; disulfide 6-13) | 0.0625 | 0.25 | 0.25 | 0
CC[C@H](C)[C@H](NC(=O)[C@@H]1C[C@@H](O)CN1C(=O)[C@@H](NC(=O)[C@@H]1C[C@@H](N)CN1C(=N)N)C(C)C)C(=O)N[C@H](C(=O)N[C@@H](Cc1ccc(O)cc1)C(=O)N[C@@H]1C(=O)N[C@@H](CC(N)=O)C(=O)N[C@@H](CCCNC(=N)N)C(=O)N[C@@H](CCN)C(=O)N[C@@H]([C@@H](C)O)C(=O)N[C@H](CCN)C(=O)N[C@@H](CCCCN)C(=O)N[C@H](C(=O)N[C@@H](CCN)C(=O)N[C@@H](CCCNC(=N)N)C(=O)N[C@@H](Cc2ccc(O)cc2)C(=O)O)CSSC1(C)C)[C@@H](C)O [Example 38, Gua-Pro((4R)NH2)-Val-Hyp-Ile-Thr-Tyr-Pen-Asn-Arg-Dab-Thr-^DDab-Lys-Cys-Dab-Arg-Tyr] (HELM PEPTIDE1{[N=C(N)N1C[C@H](N)C[C@H]1C(=O)[*:2]].V.[Hyp].I.T.Y.[Pen].N.R.[Dab].T.[NCC[C@@H](N[*:1])C(=O)[*:2]].K.C.[Dab].R.Y}$PEPTIDE1,PEPTIDE1,7:R3-14:R3$$$V2.0) | 0.0625 | 0.25 | 0.125 | 0
CCCC[C@H](NC(=O)[C@H](CCCNC(=N)N)NC(=O)[C@H](CCN)NC(=O)[C@@H]1CSSC(C)(C)[C@H](NC(=O)[C@H](Cc2ccc(O)cc2)NC(=O)[C@@H](NC(=O)[C@@H](NC(=O)[C@@H]2CCCN2C(=O)[C@@H](NC(=O)CN(CCN)CCN)C(C)C)[C@@H](C)CC)[C@@H](C)CC)C(=O)N[C@@H](CC(N)=O)C(=O)N[C@@H](CCCNC(=N)N)C(=O)N[C@@H](CCCNC(=N)N)C(=O)N[C@@H]([C@@H](C)O)C(=O)N[C@H](CCN)C(=O)N[C@@H](CCCCN)C(=O)N1)C(=O)O [Example 39, Bis(2aminoethyl)Gly-Val-Pro-Ile-Ile-Tyr-Pen-Asn-Arg-Arg-Thr-^DDab-Lys-Cys-Dab-Arg-Nle] (HELM PEPTIDE1{[NCCN(CCN)CC(=O)[*:2]].V.P.I.I.Y.[Pen].N.R.R.T.[NCC[C@@H](N[*:1])C(=O)[*:2]].K.C.[Dab].R.[Nle]}$PEPTIDE1,PEPTIDE1,7:R3-14:R3$$$V2.0) | ≤0.03125 | 0.0625 | 0.0625 | 0
CCCC[C@H](NC(=O)[C@H](CCCNC(=N)N)NC(=O)[C@H](CCC(N)=O)NC(=O)[C@@H]1CSSC(C)(C)[C@H](NC(=O)[C@H](Cc2ccc(O)cc2)NC(=O)[C@@H](NC(=O)[C@@H](NC(=O)[C@@H]2C[C@@H](N)CN2C(=O)[C@@H](NC(=O)CN(CCN)CCN)C(C)C)[C@@H](C)CC)[C@@H](C)CC)C(=O)N[C@@H](CC(N)=O)C(=O)N[C@@H](CCCNC(=N)N)C(=O)N[C@@H](CCN)C(=O)N[C@@H]([C@@H](C)O)C(=O)N[C@H](CCN)C(=O)N[C@@H](CCCCN)C(=O)N1)C(=O)O [Example 40, Bis(2aminoethyl)Gly-Val-Pro((4R)NH2)-Ile-Ile-Tyr-Pen-Asn-Arg-Dab-Thr-DDab-Lys-Cys-Gln-Arg-Nle] (X3-V[Pro(4R-NH2)]IIY[Pen]NR[Dab]T[dDab]KCQR[Nle]-OH; disulfide 6-13) | 0.0625 | 0.125 | 0.25 | 0
CC[C@H](C)[C@H](NC(=O)[C@@H]1C[C@@H](O)CN1C(=O)[C@@H](NC(=O)[C@@H]1C[C@@H](O)CN1C(=O)[C@@H](N)CCCCN)C(C)C)C(=O)N[C@H](C(=O)N[C@@H](Cc1ccc(O)cc1)C(=O)N[C@@H]1C(=O)N[C@@H](CC(N)=O)C(=O)N[C@@H](CCCNC(=N)N)C(=O)N[C@@H](CCN)C(=O)N[C@@H]([C@@H](C)O)C(=O)N[C@H](CCN)C(=O)N[C@@H](CCCCN)C(=O)N[C@H](C(=O)N[C@@H](CCN)C(=O)N[C@@H](CCCNC(=N)N)C(=O)N[C@@H](Cc2ccc(O)cc2)C(=O)O)CSSC1(C)C)[C@@H](C)O [Example 41, Lys-Hyp-Val-Hyp-Ile-Thr-Tyr-Pen-Asn-Arg-Dab-Thr-^DDab-Lys-Cys-Dab-Arg-Tyr] (HELM PEPTIDE1{K.[Hyp].V.[Hyp].I.T.Y.[Pen].N.R.[Dab].T.[NCC[C@@H](N[*:1])C(=O)[*:2]].K.C.[Dab].R.Y}$PEPTIDE1,PEPTIDE1,8:R3-15:R3$$$V2.0) | 0.0625 | 0.125 | 0.25 | 0
